Data on eleven compounds can be found in patent US12102633B2, “Spirolactone compounds” (Quixgen, Inc., priority 2017, dated 2024).

Assay [1] concerns T1, Mouse ACC (ACC protein purified from liver).
T1 construct: ACC protein was purified by taking advantage of the biotinylation in the carboxylase domain
The assay can be described thus: Mouse ACC enzymatic activity assay. The format is biochemical. Particulars: read-out: EA-CoA mACC IC50. How it is done:
ACC protein was purified by taking advantage of the biotinylation in the carboxylase domain. Male C57BL/6J mice (Jackson Laboratory) at 8-12 weeks of age were euthanized by using CO2 inhalation method and liver was immediately frozen on dry ice. To 100 mg liver was added 1 mL ice-cold tissue lysis buffer (20 mM Tris-HCl pH 7.5, 150 mM NaCl, 1 mM Na2EDTA, 1 mM EGTA, 1% Triton, 2.5 mM sodium pyrophosphate, 1 mM 3-glycerophosphate, 1 mM Na3VO4, 1 μg/mL leupeptin, 1 tablet of protease inhibitor cocktail (Roche) per 10 mL lysis buffer) followed by homogenization on ice with Power Gen 125 homogenizer (Fisher Scientific). After 30 min incubation on ice, tissue lysate was passed through a 10 mL syringe with 18½ G needle for 10 times to shear DNA. The lysate was then subject to 17.5%-35% saturated ammonium sulfate precipitation by adding 880 mg ammonium sulfate powder (Sigma) to 10 mL liver lysate in 10 min with stirring on ice. Sample was centrifuged at 14,000 rpm (Eppendorf) at 4° C. for 10 min and supernatant was saved for further precipitation by adding 880 mg ammonium sulfate powder to 10 ml supernatant in 10 min with stirring on ice. Sample was centrifuged at 14,000 rpm at 4° C. for 10 min. Supernatant was discarded and pellet was dissolved in 10 mL sample buffer (100 mM Tris-HCl, pH 7.5, 1 mM EDTA, 0.1 mM DTT, 0.5 M NaCl, and 5% glycerol). The sample was then added with 1 mL of Strep Mag beads slurry (Genscript) and rotated at 4° C. for 1 hour. Supernatant was discarded and beads were washed with sample buffer for 3 times. Protein was then eluted by adding 10 mL of 2 mM biotin (Promega) prepared in sample buffer. The eluate was then dialyzed at 4° C. for 1 hour by using Slide-A-Lyzer™ Dialysis Cassettes 10K MWCO (Thermo Fisher Scientific) against 3 changes of 200 mL dialysis buffer (50 mM HEPES, pH 7.5, 0.1 mM DTT, 1.0 mM EDTA, and 10% glycerol). Total protein concentration was then quantitated by using BCA protein assay kit (Pierce).
For ACC enzymatic activity assay, 1 μL serial diluted compounds prepared in DMSO in duplicate were mixed with 8 μL dialyzed sample at 37° C. for 10 min. Ninety one L of reaction buffer (50 mM HEPES pH 7.5, 10 mM MgCl2, 2.0 mM DTT, 0.5 mM acetyl-CoA, 4.0 mM ATP, 15 mM ^13C-NaHCO3, 0.75 mg/mL BSA, 0.5 mM sodium citrate) was added to the tube and mixed thoroughly. After incubation at 37° C. for 1 hour, 300 μl ice-cold quenching buffer (acetonitrile:methanol=1:1, 20 μM carbutamide as internal standard) was added to each tube and mixed well to terminate the reaction. Samples were centrifuged at 14,000 rpm for 10 min (Eppendorf) and supernatant was loaded onto LC-MS/MS for quantitation of malonyl-^13C-CoA (Gao et al., Journal of chromatography B, Analytical technologies in the biomedical and life sciences 853, 303-313 (2007)).
(§1) Shimadzu LC system was used for sample analysis consisting of system controller (Shimadzu CBM-20A), autosampler (Shimadzu SIL-20A), pump A and B (Shimadzu LC-20AD), column oven (Shimadzu CTO-20A), and analytical column (Phenomenex Gemini 5u C18 11A, 100×2 mm). LC was running at 200 μL/min in the binary gradient mode with mobile phase A (5 mM Ammonium Acetate and 5 mM DMBA in water (1,3-Dimethylbutylamine)) and B (methanol). The samples were analyzed on an AB Sciex QTrap4000 LC-MS/MS triple quadrupole mass spectrometer (Applied Biosystems). Malonyl-CoA and malonyl-13C-CoA were monitored in positive ion mode following MRM transitions at 854.2/347.1 and 855.1/246.1, respectively. The product and internal standard were coeluted to the mass spectrometer in 3 s with 50% H2O, 25% MeCN, 25% acetone, and 5 mM ammonium acetate. Ion chromatograms were integrated using the Analyst 1.5.2 software. Peak area ratios were compared against a standard curve and final cellular concentration of malonyl-CoA or production rate of malonyl-13C-CoA was calculated as pmoles/mg protein per minute.

A further assay relates to Human sebocytes. Kind of assay: Cellular levels of malonyl-CoA in human sebocytes. The format is cell-based. Particulars: 0.5 h, 30 min incubation, read-out: Malonyl-CoA in Sebo IC50. How it is done:
as §1
Human sebocytes (Celprogen) were grown in growth media (DMEM with 4.5 g/L glucose, 0.584 g/L L-glutamine (Sigma), 100 units/mL of penicillin and 100 μg/mL of streptomycin (Gibco), 10% fetal bovine serum (Gibco)) at 37° C. in a humidified water jacketed incubator (Forma Scientific) supplemented with 5% CO2 till 100% confluency. Cells grown in 152 cm^2 cell culture dish (Corning) were trypsinized with 0.25% trypsin-EDTA (Gibco), centrifuged at 800 rpm for 10 min (Eppendorf) and resuspended in 4 mL growth media. To 1 μL serial diluted compounds in DMSO, 99 μL cells (around 0.5 million cells suspended in growth media) were added and mixed well followed by incubation in cell culture incubator for 30 min. Cells were then centrifuged at 800 rpm for 10 min and 70 μL 10% trichloroacetic acid was added to each well to lyse the cells and precipitate proteins. Cellular levels of malonyl-CoA were quantitated by LC-MS/MS.

Another assay concerns the target T2, human ACC1 (Homo sapiens, UniProt Q13085).
T2 construct: purchased BPS Bioscience
Kind of assay: Human ACC enzymatic activity assay (ACC1). The format is biochemical. Particulars: purified human ACC1; read-out: EA-CoA hACC 1 IC50. How it is done: (§2) Human ACC enzymatic activity assays were performed by using purified human ACC1 and ACC2 proteins (BPS Bioscience). ACC1 and ACC2 proteins were diluted in 24.5 μL reaction buffer (50 mM HEPES pH 7.5, 10 mM MgCl2, 2.0 mM DTT, 4.0 mM ATP, 15 mM ^13C-NaHCO3, 0.75 mg/mL BSA, 0.5 mM sodium citrate), and final concentrations of ACC1 and ACC2 were 0.4 μg/mL and 0.48 μg/mL. For each reaction, 0.5 μL of serial diluted compounds were prepared in DMSO in duplicate or triplicate and mixed with the above 24.5 μL reaction mixtures with ACC proteins at 37° C. for 10 min. Meanwhile, 25 μL of reaction buffer plus acetyl-CoA (final concentration: 5 μM) was prepared freshly and added to the above 25 μL mixture to initiate the reaction. After incubation at 37° C. for 1-2 hours, 100 μl ice-cold 10% TCA with malonyl-^13C3-CoA (final concentration: 40 nM, Sigma-Aldrich) was added to terminate the reaction. For LC-MS/MS analysis, 300 μL quenching buffer (acetonitrile:methanol=1:1, 20 μM carbutamide as internal standard) was added to each tube and mixed well. Samples were then centrifuged at 14,000 rpm for 10 min (Eppendorf) and supernatants were loaded onto LC-MS/MS for quantitation of […] (Gao et al., Journal of chromatography B, Analytical technologies in the biomedical and life sciences 853, 303-313 (2007)).
as §1

The target of another assay is T3, human ACC2 (Homo sapiens, UniProt O00763).
T3 construct: purchased BPS Bioscience
Kind of assay: Human ACC enzymatic activity assay (ACC2). The note with it: purified human ACC2; read-out: EA-CoA hACC 2 IC50. The assay is classed as biochemical. On the procedure: as §2, §1

T3 sequence (O00763 whole entry): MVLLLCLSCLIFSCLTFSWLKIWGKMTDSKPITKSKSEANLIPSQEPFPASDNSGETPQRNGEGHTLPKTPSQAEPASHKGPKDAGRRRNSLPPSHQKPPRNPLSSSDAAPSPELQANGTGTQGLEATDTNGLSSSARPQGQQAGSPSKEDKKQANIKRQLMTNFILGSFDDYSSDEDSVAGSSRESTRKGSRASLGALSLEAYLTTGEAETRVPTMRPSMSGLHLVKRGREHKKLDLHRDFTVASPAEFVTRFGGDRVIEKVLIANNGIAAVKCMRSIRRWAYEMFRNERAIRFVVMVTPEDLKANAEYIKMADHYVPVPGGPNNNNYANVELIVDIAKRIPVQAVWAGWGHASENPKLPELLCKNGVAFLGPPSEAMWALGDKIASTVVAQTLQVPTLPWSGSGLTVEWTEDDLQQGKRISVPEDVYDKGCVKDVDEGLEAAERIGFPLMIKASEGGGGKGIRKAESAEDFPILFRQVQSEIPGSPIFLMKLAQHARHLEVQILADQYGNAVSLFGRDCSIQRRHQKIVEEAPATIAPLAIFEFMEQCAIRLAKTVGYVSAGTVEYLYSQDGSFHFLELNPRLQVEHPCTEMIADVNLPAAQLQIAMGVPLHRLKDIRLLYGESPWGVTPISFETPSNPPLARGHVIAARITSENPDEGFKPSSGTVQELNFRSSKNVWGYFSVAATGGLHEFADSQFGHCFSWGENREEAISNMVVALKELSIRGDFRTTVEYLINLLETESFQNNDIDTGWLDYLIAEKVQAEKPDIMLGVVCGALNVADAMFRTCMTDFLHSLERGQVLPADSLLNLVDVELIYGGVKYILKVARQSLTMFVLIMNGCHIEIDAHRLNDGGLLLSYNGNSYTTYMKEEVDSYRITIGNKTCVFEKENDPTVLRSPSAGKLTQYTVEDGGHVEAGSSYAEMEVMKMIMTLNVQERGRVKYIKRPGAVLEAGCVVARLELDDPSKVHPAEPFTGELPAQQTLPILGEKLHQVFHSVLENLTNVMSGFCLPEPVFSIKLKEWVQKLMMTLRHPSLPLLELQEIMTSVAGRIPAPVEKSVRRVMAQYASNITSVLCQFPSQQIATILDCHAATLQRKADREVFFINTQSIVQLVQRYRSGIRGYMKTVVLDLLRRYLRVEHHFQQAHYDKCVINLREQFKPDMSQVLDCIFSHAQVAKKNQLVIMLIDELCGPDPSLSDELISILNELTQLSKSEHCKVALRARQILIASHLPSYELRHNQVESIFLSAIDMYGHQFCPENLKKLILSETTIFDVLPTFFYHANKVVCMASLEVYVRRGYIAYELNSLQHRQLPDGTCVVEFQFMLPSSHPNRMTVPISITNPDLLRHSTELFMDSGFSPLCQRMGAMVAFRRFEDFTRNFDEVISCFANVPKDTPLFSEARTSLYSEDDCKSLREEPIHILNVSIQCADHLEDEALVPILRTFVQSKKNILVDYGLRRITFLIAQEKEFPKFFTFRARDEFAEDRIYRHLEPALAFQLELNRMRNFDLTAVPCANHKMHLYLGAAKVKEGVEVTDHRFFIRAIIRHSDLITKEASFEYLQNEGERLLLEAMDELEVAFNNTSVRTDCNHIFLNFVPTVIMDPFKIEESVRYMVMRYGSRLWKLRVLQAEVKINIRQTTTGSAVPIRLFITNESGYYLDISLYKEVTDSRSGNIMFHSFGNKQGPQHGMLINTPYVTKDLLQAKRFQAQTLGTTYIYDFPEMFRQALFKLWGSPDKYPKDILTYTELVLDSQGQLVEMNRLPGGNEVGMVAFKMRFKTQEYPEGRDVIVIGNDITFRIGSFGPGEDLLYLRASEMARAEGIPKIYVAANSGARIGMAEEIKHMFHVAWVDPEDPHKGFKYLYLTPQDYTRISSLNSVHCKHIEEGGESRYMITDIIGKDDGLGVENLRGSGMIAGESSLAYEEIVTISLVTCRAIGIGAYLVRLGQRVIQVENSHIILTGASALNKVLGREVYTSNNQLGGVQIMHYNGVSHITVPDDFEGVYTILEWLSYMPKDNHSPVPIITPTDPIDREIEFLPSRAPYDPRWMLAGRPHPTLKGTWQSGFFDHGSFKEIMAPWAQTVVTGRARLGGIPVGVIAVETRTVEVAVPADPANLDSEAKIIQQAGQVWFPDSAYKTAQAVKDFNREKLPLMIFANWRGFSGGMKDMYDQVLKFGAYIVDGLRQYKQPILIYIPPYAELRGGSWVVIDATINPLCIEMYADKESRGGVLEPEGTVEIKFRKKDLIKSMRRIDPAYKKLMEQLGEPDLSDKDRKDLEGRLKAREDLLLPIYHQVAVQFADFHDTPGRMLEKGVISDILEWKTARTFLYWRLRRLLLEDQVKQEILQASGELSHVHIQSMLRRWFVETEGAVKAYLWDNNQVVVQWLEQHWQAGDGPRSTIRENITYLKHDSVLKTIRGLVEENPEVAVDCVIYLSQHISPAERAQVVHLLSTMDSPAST

Regarding `COc1cc(C(=O)N2CCC3(CC2)Cc2ccc(Nc4ccnn4C)cc2C(=O)O3)cc2c(OC)cccc12` [Example 5, 1′-(4,8-dimethoxy-2-naphthoyl)-7-((1-methyl-1H-pyrazol-5-yl)amino)spiro[isochroman-3,4′-piperidin]-1-one], the half-maximal inhibitory concentration (IC50) in assay [1] was 0.37 nM.

For the compound `Cc1nc2ccc(C(=O)N3CCC4(CC3)Cc3ccc(C(C)C)cc3C(=O)O4)cc2[nH]1` [Example 7, 7-isopropyl-1′-(2-methyl-1H-benzo[d]imidazole-6-carbonyl)spiro[isochroman-3,4′-piperidin]-1-one], the concentration for half-maximal inhibition (IC50) with Human sebocytes was found to be 6150 nM.

Take `CC(C)c1ccc2c(c1)C(=O)OC1(CCN(C(=O)c3ccc4[nH]ncc4c3)CC1)C2` [Example 8, 1′-(1H-indazole-5-carbonyl)-7-isopropylspiro[isochroman-3,4′-piperidin]-1-one]: in the assay with Human sebocytes, the half-inhibitory concentration (IC50) worked out at 442 nM.

With `CC(C)c1ccc2c(c1)C(=O)OC1(CCN(C(=O)c3cc4ncccc4[nH]3)CC1)C2` [Example 9, 7-isopropyl-1′-(1H-pyrrolo[3,2-b]pyridine-2-carbonyl)-spiro[isochroman-3,4′-piperidin]-1-one], the half-maximal inhibitory concentration (IC50) in the assay on Human sebocytes turned out to be 714 nM.

As for `CC(C)c1ccc2c(c1)C(=O)OC1(CCN(C(=O)c3ccc4cn[nH]c4c3)CC1)C2` [Example 10, 1′-(1H-indazole-6-carbonyl)-7-isopropylspiro-[isochroman-3,4′-piperidin]-1-one], in the assay on Human sebocytes, the IC50 worked out at 676 nM.

Consider `COc1ccc2ncc(C(=O)N3CCC4(CC3)Cc3ccc(C(C)C)cc3C(=O)O4)cc2c1` [Example 11, 7-isopropyl-1′-(6-methoxyquinoline-3-carbonyl)spiro [isochroman-3,4′-piperidin]-1-one], for which the half-maximal inhibitory concentration (IC50) with Human sebocytes was found to be 142 nM.

`CCc1nc2ccc(C(=O)N3CCC4(CC3)Cc3ccc(C(C)C)cc3C(=O)O4)cc2[nH]1` [Example 12, 1′-(2-ethyl-1H-benzo[d]imidazole-6-carbonyl)-7-isopropylspiro[isochroman-3,4′-piperidin]-1-one]: the concentration for half-maximal inhibition (IC50) with Human sebocytes was 3490 nM.

Consider `CC(C)c1ccc2c(c1)C(=O)OC1(CCN(C(=O)c3ccc4[nH]c(=O)n(C)c4c3)CC1)C2` [Example 13, 7-isopropyl-1′-(3-methyl-2-oxo-2,3-dihydro-1H-benzo [d]imidazole-5-carbonyl)spiro[isochroman-3,4′-piperidin]-1-one], for which the IC50 in the assay on Human sebocytes came to 2440 nM.

As for `COC(=O)c1cncc(-c2ccc3c(c2)C(=O)OC2(CCN(C(=O)c4cc(OC)c5cccc(C6CC6)c5n4)CC2)C3)c1` [Example 19, methyl 5-(1′-(8-cyclopropyl-4-methoxyquinoline-2-carbonyl)-1-oxospiro[isochroman-3,4′-piperidin]-7-yl)nicotinate], the IC50 at human ACC1 turned out to be 1120 nM; at human ACC2, 740 nM.

Take `COC(=O)c1cncc(-c2ccc3c(c2)C(=O)OC2(CCN(C(=O)c4cc(OC)c5c(C)cn(C6CC6)c5c4)CC2)C3)c1` [Example 21, methyl 5-(1′-(1-cyclopropyl-4-methoxy-3-methyl-1H-indole-6-carbonyl)-1-oxospiro[isochroman-3,4′-piperidin]-7-yl)nicotinate]: the IC50 was determined as 296 nM on human ACC1 and 221 nM on human ACC2.

For `COc1cc(C(=O)N2CCC3(CC2)Cc2ccc(-c4cncc(C(=O)O)c4)cc2C(=O)O3)cc2c1c(C)cn2C1CC1` [Example 22, 5-(1′-(1-cyclopropyl-4-methoxy-3-methyl-1H-indole-6-carbonyl)-1-oxospiro[isochroman-3,4′-piperidin]-7-yl)nicotinic acid], the IC50 came out at 23.9 nM on human ACC1 and 11.1 nM at human ACC2.
